Measured values from article PMC11714206, “Massively Parallel Screening of Toll/Interleukin‐1 Receptor (TIR)‐Derived Peptides Reveals Multiple Toll‐Like Receptors (TLRs)‐Targeting Immunomodulatory Peptides” (Advanced Science, 2024).
Blank lines part the entries; values can stand above or below the substance they belong to.

Target: T1, MAL^TIR (Homo sapiens, UniProt P58753)
T1 construct: MAL (residues 79–221); 6xHis; made in house; host or cells: E. coli BL21 (DE3)
Assay: T‐Surf phage library (P8 and P3) selection against MAL^TIR, four rounds, NGS read counts
Format: binding
Settings: for P8_MAL Rank (after) / P8_MAL Rank (before): P8 library; for P3_MAL Rank (after) / P3_MAL Rank (before): P3 library; for Population: 4th round of selection against MAL TIR, share of NGS reads
Outline: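 P8 and P3 T‐Surf libraries panned against plate-coated TIR domains (5 µg mL^−1), 1 h binding at RT, acid elution and TG1/helper-phage amplification per round. After four rounds, pools were PCR-barcoded and sequenced (NovaSeq, 100 bp paired-end, Phred ≥30); peptides ranked by read counts.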

[1] = 4R selection against MAL, rank after grouping
[2] = 4R selection against MAL, rank before grouping
[3] = P3_MAL: rank by count after grouping
[4] = P3_MAL: rank by count before grouping
[5] = P8_MAL: rank by count after grouping
[6] = P8_MAL: rank by count before grouping
[7] = P3_MAL pool: P3 T-Surf phage library
[8] = selection against MAL, rank by count after grouping
[9] = selection against MAL, rank by count before grouping
[10] = selection against MAL TIR, rank by count after grouping
[11] = selection against MAL TIR, rank by count before grouping
[12] = selection against MAL, rank after grouping
[13] = selection against MAL, rank before grouping
[14] = P8_MAL pool: P8 T-Surf phage library

T1 sequence (P58753 79-221): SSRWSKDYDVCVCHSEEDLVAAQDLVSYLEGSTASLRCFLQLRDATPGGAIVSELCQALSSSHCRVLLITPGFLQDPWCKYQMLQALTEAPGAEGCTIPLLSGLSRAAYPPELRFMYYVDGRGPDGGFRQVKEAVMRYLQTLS

P8_MAL Rank (after) [1]: 622 | P8_MAL Rank (before) [2]: 1711
Substance: AFFWEHLRPLLGKQAM

Rank (after) [3]: 469 | Rank (before) [4]: 3476
Substance: NQRRNAVTAAAKLSGC

Rank (after) [5]: 128 | Rank (before) [6]: 2061
Substance: LFFWGSLKQLLRNDGR

Rank (after) [5]: 399 | Rank (before) [6]: 1623
Substance: AFFWAQLKSVLGNLTK

P3_MAL Rank (after) [1]: 605 | P3_MAL Rank (before) [2]: 2419
Substance: RGFTSHLYHRIQRNSN

Population [7]: 0.00413%
Substance: PNLRTKVLNYLMRIKT

Rank (after) [5]: 403 | Rank (before) [6]: 2677
Substance: NLLYDLLRWLGIRAFL

P3_MAL Rank (after) [8]: 690 | P3_MAL Rank (before) [9]: 2502
Substance: RLLKWKEALHHVLQK

Rank (after) [5]: 112 | Rank (before) [6]: 2569
Substance: TFLGHLYNALVQTGIP

P3_MAL Rank (after) [10]: 207 | P3_MAL Rank (before) [11]: 3542
Substance: KDPDNYKFAIHERDFP

P8_MAL Rank (after) [10]: 195 | P8_MAL Rank (before) [11]: 869
Substance: ARFKDMIINKWRTALT

P8_MAL Rank (after) [1]: 623 | P8_MAL Rank (before) [2]: 1589
Substance: AFFCTHLKSVLDNPTM

Rank (after) [5]: 480 | Rank (before) [6]: 2325
Substance: PFFWEHLRHLLRSHTL

Rank (after) [3]: 152 | Rank (before) [4]: 3399
Substance: NQWRNAQTAAAKLSGW

P8_MAL Rank (after) [10]: 278 | P8_MAL Rank (before) [11]: 1946
Substance: AYANFRQGLLRLPELLR

Rank (after) [3]: 442 | Rank (before) [4]: 1951
Substance: DHHLNPPPGKAIKPEMLG

P3_MAL Rank (after) [10]: 257 | P3_MAL Rank (before) [11]: 1473
Substance: YAFTSHLHRSLVQRGV

P3_MAL Rank (after) [10]: 242 | P3_MAL Rank (before) [11]: 3466
Substance: KRFWERLRYMLPHSSL

P8_MAL Rank (after) [1]: 585 | P8_MAL Rank (before) [2]: 2212
Substance: RNFVAYLFQALANTSI

P8_MAL Rank (after) [1]: 628 | P8_MAL Rank (before) [2]: 1838
Substance: AFLYTFLINLPHTNNF

P8_MAL Rank (after) [12]: 537 | P8_MAL Rank (before) [13]: 1112
Substance: WFFDGLVSLFLGDTKL

P3_MAL Rank (after) [8]: 749 | P3_MAL Rank (before) [9]: 1758
Substance: GGFLSHLFDAFSVSR

Rank (after) [3]: 390 | Rank (before) [4]: 2406
Substance: RGFLAICVIICRRKI

Population [7]: 0.00338%
Substance: PNLRTKGLNYLMRTKT

P3_MAL Rank (after) [1]: 646 | P3_MAL Rank (before) [2]: 2779
Substance: HLLKEFGKKLITAFKN

Population [14]: 0.00432%
Substance: WFMNVW*A*FCVIPKX

P3_MAL Rank (after) [8]: 740 | P3_MAL Rank (before) [9]: 1489
Substance: YAARANSGFHTFRDND

Population [7]: 0.00902%
Substance: HQWRNALTAAANLSGW

P8_MAL Rank (after) [12]: 485 | P8_MAL Rank (before) [13]: 1831
Substance: AFLYTFLLNLTHQPTF

Population [14]: 0.0034%
Substance: LFFWESLKQLLRSGGR

P3_MAL Rank (after) [10]: 204 | P3_MAL Rank (before) [11]: 3341
Substance: NQWRNSLTAAANLSCW

Rank (after) [5]: 186 | Rank (before) [6]: 1639
Substance: AFFWAQLKSGLGNPTK

P3_MAL Rank (after) [10]: 266 | P3_MAL Rank (before) [11]: 2696
Substance: PNLRTNVLNYLMRPKT

P3_MAL Rank (after) [12]: 515 | P3_MAL Rank (before) [13]: 3176
Substance: SSFREGLRRMLELTKI
